Tests used:
Staphylococcus aureus = experiment: Antimicrobial activity against methicillin-resistant Staphylococcus aureus assessed as inhibition of microbial proliferation; assay type: functional
[1] = Toxicity in ip dosed ICR mouse implanted with mouse EAC; assay type: organism-based; conditions: in vivo
[2] = Inhibition of gastric ATPase (unknown origin); assay type: tissue-based, Homo sapiens, Stomach
P388 = experiment: Cytotoxicity against mouse P388 cells; assay type: functional, cell-based
B16 = experiment: Cytotoxicity against mouse B16 cells; assay type: functional
[3] = Antitumor activity against mouse EAC implanted in ddy-SLC mouse at 2.5 mg/kg, ip qd administered day 1 to 5 starting 24 hrs post tumor implantation; assay type: functional, Ehrlich
L1210 = experiment: Cytotoxicity against mouse L1210 cells; assay type: functional, cell-based
[4] = biological target: T1, Gastrin/cholecystokinin type B receptor (Rattus norvegicus, UniProt P30553); experiment: Inhibition of CCK-B receptor in rat cerebral cortex; assay type: tissue-based
T1 sequence (P30553 whole entry): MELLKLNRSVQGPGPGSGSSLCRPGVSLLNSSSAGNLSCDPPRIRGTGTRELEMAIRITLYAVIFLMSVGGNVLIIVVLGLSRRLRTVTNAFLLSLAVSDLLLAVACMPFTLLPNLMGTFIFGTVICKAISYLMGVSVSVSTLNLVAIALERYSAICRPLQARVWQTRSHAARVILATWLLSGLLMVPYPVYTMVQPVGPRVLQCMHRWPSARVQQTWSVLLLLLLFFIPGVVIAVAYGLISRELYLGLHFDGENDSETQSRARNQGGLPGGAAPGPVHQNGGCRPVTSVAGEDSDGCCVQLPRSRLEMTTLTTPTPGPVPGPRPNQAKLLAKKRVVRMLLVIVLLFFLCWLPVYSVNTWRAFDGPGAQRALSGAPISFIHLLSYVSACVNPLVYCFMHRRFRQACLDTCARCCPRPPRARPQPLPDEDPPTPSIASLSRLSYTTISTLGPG

## C[C@@H]1C[C@H](C)C(=O)/C=C/[C@@H]2[C@@H](O)[C@H]3OC4=C(C(=O)O[C@@]42C[C@H]3C)C1=O (single isomer, unassigned; atropisomer)
Staphylococcus aureus
  MIC: 3.5 µg/mL

## C[C@@H]1C[C@H](C)C(=O)/C=C/[C@@H]2[C@@H](O)[C@H]3OC4=C(C(=O)O[C@@]42C[C@H]3C)C1=O
Staphylococcus aureus; Staphylococcus aureus, read-out: MIC
  MIC: 5.2 µg/mL

## COc1ccc(Cl)c(C)c1C(=O)O[C@@H]1C[C@H](O[C@H]2[C@H](C)O[C@@H](O[C@H]3CCC[C@@H]4[C@@H]3C=C[C@H]3CCCC/C=C/[C@@H]5C=C(C(=O)O)[C@H](C)C[C@]56OC(=O)C(=C6O)OC(=O)[C@@]43C)C(O)[C@@H]2O)O[C@H](C)[C@H]1O (stereo not given in full)
[1]
  LD50: 295 mg/kg

## CC[C@@H]1C[C@]23OC(=O)C(=C2O)[C@@H](O)[C@@H](C)C[C@H](C)CCC[C@]3(C)C=C1C
[2]
  IC50: 500 nM

## COC(=O)N[C@@H]1[C@H](C)O[C@@H](O[C@H]2C/C=C(\C)[C@@H]3C=C[C@@H]4[C@@H](O[C@H]5C[C@H](O[C@@H]6CC[C@H](C)[C@@H](O[C@H]7C[C@H](O)[C@H](O[C@@H]8CC[C@H](O)[C@@H](C)O8)[C@@H](C)O7)O6)[C@H](OC(C)=O)[C@@H](C)O5)[C@@H](C)C[C@H](C)[C@H]4[C@]3(C)C(=O)C3=C(O)[C@@]4(CC(C=O)=C[C@H](O)[C@H]4/C=C/2C)OC3)C[C@@]1(C)N
P388
  INH: 6.25 µg/mL
B16
  INH: 25 µg/mL

## C=C1C(=O)[C@]2(C)C(=O)O[C@@]34C[C@H](C)C(C(=O)O)=C[C@@H]3CCC[C@@H](C)C[C@@H](C)[C@H]1OC24
P388; Mus musculus, P388
  IC50: 89 nM
[3]
  T/C: 145.7%
L1210
  IC50: 216 nM

## CC1=CC2C/C=C/C=C/CC(O)C/C=C/CC(C)C3C(CSC3C(=O)C(=O)O)C(=O)C3=C(O)C2(CC1C)OC3=O (stereo not given)
[4]
  IC50: 3.6 nM

From ChEMBL document CHEMBL3576770, “Spirotetronate polyketides as leads in drug discovery” (J Nat Prod, 2015)
